According to patent US5672715A, “Herbicidal substituted 3-aryl-pyrazoles” (Monsanto Company, priority 1995, dated 1997):

What was measured:
Assay type in all cases: in vivo
[1] = tested on: Velvetleaf; experiment: pre-emergence herbicide test; details: Abutilon theophrasti, pre-emergence, 0.25 lb/A; read-out: % plant inhibition
In short: (§1)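 Herbicidal effect was assessed as percent inhibition about 14 days after sowing. A known amount of compound was added to the covering topsoil, and the pans were subirrigated in a greenhouse.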

[2] = tested on: Morning Glory; experiment: pre-emergence herbicide test; details: Ipomoea, pre-emergence, 0.25 lb/A; read-out: % plant inhibition
In short: as §1

[3] = tested on: Green Foxtail; experiment: pre-emergence herbicide test; details: Setaria viridis, pre-emergence; 0.25 lb/A; read-out: % plant inhibition
In short: as §1

[4] = tested on: Barnyardgrass; experiment: pre-emergence herbicide test; details: Echinochloa crus-galli, pre-emergence, 0.25 lb/A; read-out: % plant inhibition
In short: as §1

[5] = tested on: Giant Foxtail; experiment: pre-emergence herbicide test; details: Setaria faberi, pre-emergence, 0.25 lb/A; read-out: % plant inhibition
In short: as §1

[6] = tested on: Rape; experiment: pre-emergence herbicide test; details: pre-emergence, 0.25 lb/A; read-out: % plant inhibition
In short: as §1

[7] = tested on: Soybean; experiment: pre-emergence herbicide test; details: Glycine max, pre-emergence, 0.25 lb/A; read-out: % plant inhibition
In short: as §1

[8] = tested on: Downy Brome; experiment: pre-emergence herbicide test; details: Bromus tectorum, pre-emergence, 0.25 lb/A; read-out: % plant inhibition
In short: as §1

[9] = tested on: Corn; experiment: pre-emergence herbicide test; details: Zea mays, pre-emergence, 0.25 lb/A; read-out: % plant inhibition
In short: as §1

[10] = tested on: Birdseye Speedwell; experiment: pre-emergence herbicide test; details: pre-emergence, 0.25 lb/A; read-out: % plant inhibition
In short: as §1

[11] = tested on: Wheat; experiment: pre-emergence herbicide test; details: Triticum aestivum, pre-emergence, 0.25 lb/A; read-out: % plant inhibition
In short: as §1

[12] = tested on: Common Chickweed; experiment: pre-emergence herbicide test; details: pre-emergence, 0.25 lb/A; read-out: % plant inhibition
In short: as §1

[13] = tested on: Bedstraw Catchweed; experiment: pre-emergence herbicide test; details: Galium aparine, pre-emergence, 0.25 lb/A; read-out: % plant inhibition
In short: as §1

[14] = tested on: Wild Oats; experiment: pre-emergence herbicide test; details: Avena fatua, pre-emergence, 0.25 lb/A; read-out: % plant inhibition
In short: as §1

[15] = tested on: Cocklebur; experiment: pre-emergence herbicide test; details: Xanthium strumarium, pre-emergence, 0.25 lb/A; read-out: % plant inhibition
In short: as §1

[16] = tested on: Blackgrass; experiment: pre-emergence herbicide test; details: Alopecurus myosuroides, pre-emergence, 0.25 lb/A; read-out: % plant inhibition
In short: as §1

[17] = tested on: Seedling Johnsongrass; experiment: pre-emergence herbicide test; details: Sorghum halepense, pre-emergence, 0.25 lb/A; read-out: % plant inhibition
In short: as §1

[18] = tested on: Velvetleaf; experiment: post-emergence herbicide test; details: Abutilon theophrasti, post-emergence, 0.25 lb/A; read-out: % plant inhibition
In short: (§2)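 Seeds sown on compacted topsoil, covered, leveled; greenhouse, overhead or subirrigation. Plants 2–3 wk old → atomizer spray, 170.3 kPa, 1870 L/Ha, ~0.4% v/v emulsifier. Readout: % inhibition.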

[19] = tested on: Morning Glory; experiment: post-emergence herbicide test; details: Ipomoea, post-emergence, 0.25 lb/A; read-out: % plant inhibition
In short: as §2

[20] = tested on: Green Foxtail; experiment: post-emergence herbicide test; details: Setaria viridis, post-emergence, 0.25 lb/A; read-out: % plant inhibition
In short: as §2

[21] = tested on: Barnyardgrass; experiment: post-emergence herbicide test; details: Echinochloa crus-galli, post-emergence, 0.25 lb/A; read-out: % plant inhibition
In short: as §2

[22] = tested on: Giant Foxtail; experiment: post-emergence herbicide test; details: Setaria faberi, post-emergence, 0.25 lb/A; read-out: % plant inhibition
In short: as §2

[23] = tested on: Rape; experiment: post-emergence herbicide test; details: post-emergence, 0.25 lb/A; read-out: % plant inhibition
In short: as §2

[24] = tested on: Soybean; experiment: post-emergence herbicide test; details: Glycine max, post-emergence, 0.25 lb/A; read-out: % plant inhibition
In short: as §2

[25] = tested on: Downy Brome; experiment: post-emergence herbicide test; details: Bromus tectorum, post-emergence, 0.25 lb/A; read-out: % plant inhibition
In short: as §2

[26] = tested on: Corn; experiment: post-emergence herbicide test; details: Zea mays, post-emergence, 0.25 lb/A; read-out: % plant inhibition
In short: as §2

[27] = tested on: Birdseye Speedwell; experiment: post-emergence herbicide test; details: post-emergence, 0.25 lb/A; read-out: % plant inhibition
In short: as §2

[28] = tested on: Wheat; experiment: post-emergence herbicide test; details: Triticum aestivum, post-emergence, 0.25 lb/A; read-out: % plant inhibition
In short: as §2

[29] = tested on: Common Chickweed; experiment: post-emergence herbicide test; details: post-emergence, 0.25 lb/A; read-out: % plant inhibition
In short: as §2

[30] = tested on: Bedstraw Catchweed; experiment: post-emergence herbicide test; details: Galium aparine, post-emergence, 0.25 lb/A; read-out: % plant inhibition
In short: as §2

[31] = tested on: Wild Oats; experiment: post-emergence herbicide test; details: Avena fatua, post-emergence, 0.25 lb/A; read-out: % plant inhibition
In short: as §2

[32] = tested on: Cocklebur; experiment: post-emergence herbicide test; details: Xanthium strumarium, post-emergence, 0.25 lb/A; read-out: % plant inhibition
In short: as §2

[33] = tested on: Blackgrass; experiment: post-emergence herbicide test; details: Alopecurus myosuroides, post-emergence, 0.25 lb/A; read-out: % plant inhibition
In short: as §2

[34] = tested on: Seedling Johnsongrass; experiment: post-emergence herbicide test; details: Sorghum halepense, post-emergence, 0.25 lb/A; read-out: % plant inhibition
In short: as §2

Row | SMILES | inhibition at 280.212 g/ha [1] [%] | inhibition at 280.212 g/ha [2] [%] | inhibition at 280.212 g/ha [3] [%] | inhibition at 280.212 g/ha [4] [%] | inhibition at 280.212 g/ha [5] [%] | inhibition at 280.212 g/ha [6] [%] | inhibition at 280.212 g/ha [7] [%] | inhibition at 280.212 g/ha [8] [%] | inhibition at 280.212 g/ha [9] [%] | inhibition at 280.212 g/ha [10] [%] | inhibition at 280.212 g/ha [11] [%] | inhibition at 280.212 g/ha [12] [%] | inhibition at 280.212 g/ha [13] [%] | inhibition at 280.212 g/ha [14] [%] | inhibition at 280.212 g/ha [15] [%] | inhibition at 280.212 g/ha [16] [%] | inhibition at 280.212 g/ha [17] [%] | inhibition at 280.212 g/ha [18] [%] | inhibition at 280.212 g/ha [19] [%] | inhibition at 280.212 g/ha [20] [%] | further results
1 | CCOC(=O)C=C(COC(=O)c1cc(-c2nn(C)c(C(F)(F)F)c2C)c(F)cc1Cl)OC [Compound 44] | 60 | 50 | 100 | 10 | 50 | 20 | 0 | 5 | 0 | 85 | 0 | 85 | 40 | 5 | 0 | 20 | 40 | 99 | 80 | 90 | inhibition at 280.212 g/ha [21]: 90%; inhibition at 280.212 g/ha [22]: 65%; inhibition at 280.212 g/ha [23]: 45%; inhibition at 280.212 g/ha [24]: 10%; inhibition at 280.212 g/ha [25]: 35%; inhibition at 280.212 g/ha [26]: 15%; inhibition at 280.212 g/ha [27]: 100%; inhibition at 280.212 g/ha [28]: 15%; inhibition at 280.212 g/ha [29]: 95%; inhibition at 280.212 g/ha [30]: 100%; inhibition at 280.212 g/ha [31]: 25%; inhibition at 280.212 g/ha [32]: 99%; inhibition at 280.212 g/ha [33]: 25%; inhibition at 280.212 g/ha [34]: 60%
2 | Cc1c(-c2cc(C(=O)OCC(=O)c3ccccc3)c(Cl)cc2F)nn(C)c1C(F)(F)F [Compound 43] | 65 | 10 | 60 | 15 | 15 | 5 | 0 | 5 | 0 | 60 | 0 | 55 | 20 | 5 | 45 | 10 | 35 | 80 | 75 | 20 | inhibition at 280.212 g/ha [21]: 5%; inhibition at 280.212 g/ha [22]: 0%; inhibition at 280.212 g/ha [23]: 25%; inhibition at 280.212 g/ha [24]: 15%; inhibition at 280.212 g/ha [25]: 10%; inhibition at 280.212 g/ha [26]: 7%; inhibition at 280.212 g/ha [27]: 100%; inhibition at 280.212 g/ha [28]: 10%; inhibition at 280.212 g/ha [29]: 65%; inhibition at 280.212 g/ha [30]: 30%; inhibition at 280.212 g/ha [31]: 15%; inhibition at 280.212 g/ha [32]: 85%; inhibition at 280.212 g/ha [33]: 10%; inhibition at 280.212 g/ha [34]: 25%
